Key:
[1] = system: guinea-pig papillary muscle; assay: Developed force and action potential parameters in papillary muscle; conditions: for effect on developed force and action potential parameters at steady-state: equimolar concentrations
Description: Contraction was measured in mycocytes and papillary muscle isolated from guinea-pig ventricle and pectinate muscle isolated from human right atrial appendage. Myocytes were isolated from guinea-pig left ventricle by an enzyme digestion procedure and placed in a chamber on the stage of an inverted microscope. Cells were superfused with Krebs-Henseleit buffer (KHB) at 30° C. and field stimulated at 1.0 Hz. Cell shortening was measured with a video camera and edge-etection system. Papillary and pectinate muscles were placed in KHB at 37° C. and field stimulated at 1.0 Hz. Isometric tension was recorded at maximum developed force (Lmax). Electrophysical parameters were recorded in papillary muscles superfused with KSB at 37° C. and stimulated at 1.0 Hz. Standard action potential parameters were recorded, i.e. maximum rate of rise of membrane potential (Vmax); action potential amplitude (APA); and action potential duration to 90% repolarisation (APD90). Developed force was measured by recording isometric tension in muscles stretched to 90% of Lmax.

[2] = system: adult patients, axillary brachial plexus; conditions: by comparison; cited from earlier work
[3] = system: Pentobarbital-Anesthetized Swine; assay: Intracoronary (LAD) injection cardiotoxicity model, lethal dose and QRS prolongation; format: in vivo; conditions: for lethal dose, median / lethal dose, range: LAD injection, death by VF; for lethal dose higher than that of B: injected into LAD or RCA
Description: Reiz et al, Acta Anaesthesiol. Scand. (1989) 33:93-98, reports that in vivo cardiotoxicity of local anaesthetics can be evaluated without interference by central mechanisms in a highly reproducible model (Pentobarbital-Anesthetized Swine) where the drug is injected directly into a coronary artery. When local anesthetics are injected in the left anterior descending artery (LAD), death occurs consistently by ventricular fibrillation (VF). The aim of this study was to determine the lethal dose of each of the local anesthetics levobupivacaine (L), bupivacaine (B) and ropivacaine (R) as well as to compare their respective effects on the QRS interval of the precordial ECG.
A total of 27 animals were randomized to receive a dose response injection of L, B or R into the LAD. A blinded randomized protocol was used. All calculations and exclusions were made prior to disclosure of treatment. The doses of each agent were 0.375, 0.75, 1.5, 3.0, 4.0 mg etc., in increments of 1 mg till death occurred. Each dose was made up in a volume of 3 ml plus the dead space of the catheter (1.2 ml), injected over 10 sec. The time between doses was 5 min, or longer, if ECG, blood pressure or heart rate had not returned to pre-injection controls. A complete 12-lead ECG was recorded on optical disk for later analysis. Statistical analysis was by ANOVA, Dunnett's and the Mann-Whitney-U test. Power analysis was performed (0.85 to 1.00).
One animal died of myocardial infarction following acute embolization into the LAD. […] Of the animals injected into the LAD, 7 had received L, 7 B and 6 R. All deaths following LAD injection were by VF and deaths following RCA injection were by A-V dissociation. […] The difference between L and R at 50 msec prolongation was insignificant.

[4] = system: patients undergoing major abdominal surgery; assay: Epidural anaesthesia in patients undergoing major abdominal surgery; format: in vivo, human; conditions: 0.75%
Description: This study compared the efficacy, safety and pharmacokinetics of 0.75% levobupivacaine with 0.75% bupivacaine in 58 patients undergoing major abdominal surgery under epidural anaesthesia. Although 0.75% bupivacaine is no longer used in some situations (obstetrics) and 0.5% concentrations are usually adequate for lower extremity surgery, 0.75% is preferential for abdominal surgery because of the enhancement of motor blockade. Onset of sensory anaesthesia to T10 (mean˜15 minutes), time to peak block height (T5, 25-30 min), and abdominal muscle relaxation (RAM score 3-5) were equivalent between the groups. Duration of total sensory anaesthesia was statistically longer with 0.75% levobupivacaine (levobupivacaine—551 min, racemic bupivacaine—506 min).

[5] = system: conscious, previously instrumented, adult sheep; assay: Electrocardiological effects of i.v. infusion in conscious sheep; format: in vivo; conditions: for deaths: 150, 150 and 200 mg infused over 3 min, ventricular tachycardia and fibrillation; for convulsive dose (inducing ventricular arrhythmias): sheep, 3 min
Description: The electrocardiological effects of bupivacaine and levobupivacaine were compared, in two groups of conscious, previously instrumented, adult sheep. Two cohorts of 7 animals were infused over 1 min with 6.25, 12.5, 18.75, 25 and 37.5 mg levobupivacaine and 12.5, 25 and 37.5 mg bupivacaine or over 3 min with 37.5, 50, 75, 100, 150 and 200 mg levobupivacaine and 37.5, 75, 100, 150 and 200 mg bupivacaine. […] Both drugs, at convulsive doses (75 mg bupivacaine, 100 mg levobupivacaine), induced ventricular arrhythmias; however, there was a higher threshold of toxicity with levobupivacaine. […] Inasmuch as levobupivacaine is reported to produce at least equivalent neural blockade to bupivacaine, it therefore offers a great margin of clinical safety.
FIGS. 1 and 2 of the accompanying drawings show baseline record of ECG (left), S-T segment change (centre) and multiform ventricular tachycardia (right) after i.v. infusion (40 ml, 3 min) of 100 mg bupivacaine and then of 200 mg levobupivacaine, in the same sheep.

[6] = system: myocytes isolated from guinea-pig left ventricle; assay: Cell shortening (contraction) in isolated ventricular myocytes; format: cell-based; conditions: cardiac myocytes, P<0.05
Description: Contraction was measured in mycocytes and papillary muscle isolated from guinea-pig ventricle and pectinate muscle isolated from human right atrial appendage.
Myocytes were isolated from guinea-pig left ventricle by an enzyme digestion procedure and placed in a chamber on the stage of an inverted microscope. Cells were superfused with Krebs-Henseleit buffer (KHB) at 30° C. and field stimulated at 1.0 Hz. Cell shortening was measured with a video camera and edge-etection system. Papillary and pectinate muscles were placed in KHB at 37° C. and field stimulated at 1.0 Hz. Isometric tension was recorded at maximum developed force (Lmax).
The mean drug concentration producing a 50% reduction (CI-50) in cell shortening was calculated from cumulative dose-response curves. All data were analysed by an unpaired t-test (for control data comparison) or one-way ANOVA (for comparison between drug groups), assuming a Gaussian distribution.

sensory block = conditions: 0.25%; cited from earlier work
[7] = Plasma kinetics after administration (summary statement); format: in vivo
[8] = system: adult patients, axillary brachial plexus; assay: Axillary brachial plexus neural blockade in patients with distal upper extremity orthopaedic surgery; format: in vivo, human
Description: 20 adult patients scheduled for distal upper extremity orthopaedic surgical procedures with axillary brachial plexus neural blockade were studied. Patients received an axillaryblock using 50 ml of 0.5% levobupivacaine without epinephrine. Transarterial and/or nerve stimulator techniques were used to identify injection into the brachial plexus sheath. If after 10 min patients required supplemental local anaesthetic to produce anaesthesia in a single peripheral nerve distribution, an additional 10 ml of 0.5% levobupivacaine could be administered as a single peripheral nerve-block at the axilla or wrist. Patients were monitored for onset and duration of sensory and motor block using a 0-2 scale (0=no block, 1=partial block, 2=complete block) for each major nerve distribution (median, musculocutaneous, radius, ulnar). Time to onset of adequate anaesthesia for surgery, time to first request for post-operative analgesics, as well as any subjective or objective signs of local anaesthetic toxicity were also collected. Blood samples for PK analysis were drawn from 10 patients.

## CCCCN1CCCCC1C(=O)Nc1c(C)cccc1C (racemic) [bupivacaine]
[1]
  effect on developed force and action potential parameters at steady-state: No significant differences
[2]
  recommended dose: 2 mg/kg
[3]
  lethal dose, median: 5 mg
  lethal dose, range: 4 to 6 mg
[4]
  duration of total sensory anaesthesia: 506 min
  onset of sensory anaesthesia to T10, mean: ~15 min
[5]
  deaths: Three animals died within 10 min
[5]; in vivo, iv
  potency in inducing an arrhythmia, relative to levobupivacaine: slightly more potent
  potency in sustaining the arrhythmia, relative to levobupivacaine: more than three times more potent
  convulsive dose (inducing ventricular arrhythmias): 75 mg

## CCCCN1CCCC[C@H]1C(=O)Nc1c(C)cccc1C [levobupivacaine, (S)-1-butyl-N-(2,6-dimethylphenyl)-2-piperidinecarboxamide]
[1]
  effect on developed force and action potential parameters at steady-state: No significant differences
[1]; guinea-pig papillary muscle, P<0.05
  recovery of contractility on washout with drug-free perfusate, vs bupivacaine: significantly greater
[6]
  recovery of contractility on washout with drug-free perfusate, vs bupivacaine: significantly greater
Sensory block
  sensory block efficacy and duration compared with bupivacaine: comparable efficacy to bupivacaine
[3]
  lethal dose, median: 8 mg
  lethal dose, range: 7 to 9 mg
  lethal dose higher than that of B: approximately 50%
[3]; at 40 msec QRS prolongation
  difference in dose vs B to obtain the same degree of QRS prolongation: 25%
[3]; at 50 msec prolongation
  difference between L and R in dose for QRS prolongation: insignificant
[3]; at 90 msec QRS prolongation
  difference in dose vs B to obtain the same degree of QRS prolongation: 47%
[7]; in vivo
  time to reach Tmax compared with the same dose of racemate: takes longer to reach Tmax
[7]; within 0-4 hours post-administration
  plasma clearance rate compared with bupivacaine: faster plasma clearance rate
[8]; 0.5%, 50-60 ml
  duration of sensory/motor block in at least two nerve distributions, range: 14 to 24 h
  mean duration of sensory/motor block in at least two nerve distributions: 20 h
  sensory and motor blockade in all four peripheral nerve distributions immediately post-operatively: All patients had complete sensory and motor blockade
  time to request for supplemental analgesics: 15 h
  time to request for supplemental analgesics, range: 9 to 24 h
[8]; 0.5%, 50-60 ml, 20 patients
  patients requiring general anaesthesia due to inadequate sensory/motor block at 30 min post-injection: 2 patients
  patients with adequate onset of sensory/motor blockade for surgical anaesthesia within 30 min: 18 patients
[8]; 3-5 mg/kg
  signs or symptoms of local anaesthetic toxicity: No patient demonstated any subjective or objective signs or symptoms of local anaesthetic toxicity
[8]; axillary block, patients
  well tolerated doses for axillary block: 3 to 5 mg/kg
[4]
  duration of total sensory anaesthesia: 551 min
  onset of sensory anaesthesia to T10, mean: ~15 min
[5]
  deaths: No animals died
[5]; in vivo
  ventricular arrhythmias induced, compared with the same doses of bupivacaine: Significantly fewer, as well as less deleterious
[5]; in vivo, iv
  convulsive dose (inducing ventricular arrhythmias): 100 mg

## CCCN1CCCC[C@H]1C(=O)Nc1c(C)cccc1C [ropivacaine, reference compound]
[1]
  effect on developed force and action potential parameters at steady-state: No significant differences
[3]
  lethal dose, median: 8 mg
  lethal dose, range: 4 to 10 mg
  lethal dose higher than that of B: approximately 50%
[3]; at the 6 mg dose, 100% approximately 60 msec
  QRS prolongation: ≤ 100%
